ChEMBL document CHEMBL1143916, “Inhibition of 3(17)alpha-hydroxysteroid dehydrogenase (AKR1C21) by aldose reductase inhibitors” (Bioorg Med Chem, 2008)

Experiments:
[1] = biological target: T1, Aldo-keto reductase family 1 member C21 (Mus musculus, UniProt Q91WR5); assay: Inhibition of mouse recombinant AKR1C21
T1 sequence (Q91WR5 whole entry): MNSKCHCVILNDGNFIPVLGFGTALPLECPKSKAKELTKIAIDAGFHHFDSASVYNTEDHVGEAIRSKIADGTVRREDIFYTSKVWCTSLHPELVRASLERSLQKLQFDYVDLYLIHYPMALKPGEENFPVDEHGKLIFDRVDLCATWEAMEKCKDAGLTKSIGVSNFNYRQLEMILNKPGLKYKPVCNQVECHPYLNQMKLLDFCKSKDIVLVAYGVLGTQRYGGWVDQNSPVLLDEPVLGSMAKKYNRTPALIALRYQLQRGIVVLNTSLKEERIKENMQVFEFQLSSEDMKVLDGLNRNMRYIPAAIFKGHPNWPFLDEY

[2] = biological target: T2, Aldo-keto reductase family 1 member C21 (Mus musculus) (UniProt Q91WR5); assay: Inhibition of mouse recombinant AKR1C21 at 12 uM
T2 sequence (whole entry): T1 sequence (Q91WR5 whole entry)

[3] = biological target: Aldo-keto reductase family 1 member B1 (Homo sapiens, UniProt P15121); assay: Inhibition of human recombinant aldose reductase

Row | SMILES | IC50 [1] | Ki [1] | inhibition [2] | IC50 [3]
1 | O=C1CC2(C(=O)N1)C(=O)N(Cc1ccc(Br)cc1F)C(=O)c1ccc(F)cc12 (configuration not stated) | 27.5 µM | 10.4 µM | – | –
2 | O=c1cc(-c2ccccc2)oc2cc(O)cc(O)c12 [CHRYSIN] | – | – | 36% | 8.5 µM
3 | O=c1c(O)c(-c2cc(O)c(O)c(O)c2)oc2cc(O)cc(O)c12 [MYRICETIN] | 12.3 µM | – | – | 29 µM
4 | O=c1c(O)c(-c2ccc(O)c(O)c2)oc2cc(O)cc(O)c12 [QUERCETIN] | 6.9 µM | 11 µM | – | –
5 | C[C@@H]1O[C@@H](Oc2c(-c3ccc(O)c(O)c3)oc3cc(O)cc(O)c3c2=O)[C@H](O)[C@H](O)[C@H]1O [QUERCITRIN] | 33.3 µM | – | – | –
6 | COc1ccc2c(C(=S)N(C)CC(=O)O)cccc2c1C(F)(F)F [TOLRESTAT] | 48 µM | 22 µM | – | –
7 | O=C(O)Cc1nn(Cc2nc3cc(C(F)(F)F)ccc3s2)c(=O)c2ccccc12 [ZOPOLRESTAT] | 158 µM | – | – | –
